Measurements reported in ChEMBL document CHEMBL3745602, “Design, synthesis and in vivo screening of some novel quinazoline analogs as anti-hyperlipidemic and hypoglycemic agents” (2016).

Legend:
Type in all cases: functional
Rattus norvegicus [1] = experiment: Hypoglycemic activity in Sprague-Dawley rat assessed as blood glucose level at 250 mg/kg, po dosed for last 7 days during 30 day high-fat diet feeding schedule (reference value: 63.70 +/- 0.7 mg/dl)
Rattus norvegicus [2] = experiment: Hypolipidemic activity in high fat-induced hyperlipidemic Sprague-Dawley rat assessed as ratio of cholesterol level to HDL level at 250 mg/kg, po dosed for last 7 days during 30 day high-fat diet feeding schedule (reference value: 1.88 +/- 0.05)
Rattus norvegicus [3] = experiment: Hypolipidemic activity in high fat-induced hyperlipidemic Sprague-Dawley rat assessed as cholesterol level at 250 mg/kg, po dosed for last 7 days during 30 day high-fat diet feeding schedule (reference value: 70.8 +/- 0.5 mg/dl)
Rattus norvegicus [4] = experiment: Hypolipidemic activity in high fat-induced hyperlipidemic Sprague-Dawley rat assessed as HDL level at 250 mg/kg, po dosed for last 7 days during 30 day high-fat diet feeding schedule (reference value: 37.5 +/- 0.96 mg/dl)
Rattus norvegicus [5] = experiment: Hypolipidemic activity in high fat-induced hyperlipidemic Sprague-Dawley rat assessed as LDL level at 250 mg/kg, po dosed for last 7 days during 30 day high-fat diet feeding schedule (reference value: 22.42 +/- 0.41 mg/dl)
Rattus norvegicus [6] = experiment: Hypolipidemic activity in high fat-induced hyperlipidemic Sprague-Dawley rat assessed as VLDL level at 250 mg/kg, po dosed for last 7 days during 30 day high-fat diet feeding schedule (reference value: 23.48+/- 0.78 mg/dl)
Rattus norvegicus [7] = experiment: Hypolipidemic activity in high fat-induced hyperlipidemic Sprague-Dawley rat assessed as triglyceride level at 250 mg/kg, po dosed for last 7 days during 30 day high-fat diet feeding schedule (reference value: 74.3+/- 0.48 mg/dl)
Rattus norvegicus [8] = experiment: Effect on body weight in Sprague-Dawley rat at 250 mg/kg, po dosed for last 7 days during 30 day high-fat diet feeding schedule measured every 5th day (reference value: 207.67 +/- 1.2 g)

Compound	Activity (Rattus norvegicus [1]) [mg/dL]	Ratio (Rattus norvegicus [2])	Activity (Rattus norvegicus [3]) [mg/dL]	Activity (Rattus norvegicus [4]) [mg/dL]	Activity (Rattus norvegicus [5]) [mg/dL]	Activity (Rattus norvegicus [6]) [mg/dL]	Activity (Rattus norvegicus [7]) [mg/dL]	Activity (Rattus norvegicus [8]) [g]
CC(C)OC(=O)C(C)(C)Oc1ccc(C(=O)c2ccc(Cl)cc2)cc1 [FENOFIBRATE]	86.41	2.49	85.4	34.38	54.66	37	125.3	269
Cc1nc2cc(O)ccc2c(=O)n1-c1ccc(OCC(=O)O)cc1	85.3	1.88	77	40.5	47.05	37.7	116.8	261.7
CC1N(c2ccc(OC(C)(C)C(=O)O)cc2)C(=O)c2ccccc2N1c1ccccc1 (configuration not stated)	115	4.15	106.4	25.5	54.78	22.05	154.8	277.3
Cc1nc2ccccc2c(=O)n1-c1ccc(OC(C)(C)C(=O)O)cc1	89.19	2.32	93	40	44.66	37.05	154.1	272.17
CC(C)(Oc1ccc(-n2c(-c3ccccc3)nc3ccccc3c2=O)cc1)C(=O)O	114.8	3.11	97.5	31.6	64.33	24.3	158	284.5
CC1N(c2ccc(OCC(=O)O)cc2)C(=O)c2ccccc2N1c1ccccc1 (configuration not stated)	114.1	2.67	108.9	41.4	70.91	12.21	158.8	274.7
Cc1nc2cc(O)ccc2c(=O)n1-c1ccc(OC(C)(C)C(=O)O)cc1	83	1.9	77.7	40.8	35.81	35.38	114.8	260.1
O=C(O)COc1ccc(-n2c(-c3ccccc3)nc3ccccc3c2=O)cc1	112.8	3.26	110.8	33.7	57.22	28.16	144.8	281.2
Cc1nc2ccccc2c(=O)n1-c1ccc(OCC(=O)O)cc1	91.8	1.99	78.5	39.1	47.66	34.89	117.1	273.85
